Values joined by “and” are separate entries in the source; they are usually repeats but may differ in a detail not shown here. Equal values may be shown once. Read-outs that look alike come from different tables or passages of the source.
Tests used:
[1] = test system: A549 cells; experiment: Annexin V-FITC/propidium iodide flow cytometric apoptosis analysis; format: cell-based, Human; conditions: 48 hours
Protocol: To detect apoptotic cells, flow cytometric analysis was performed using Annexin V-FITC/propidium iodide double staining of NSCLC cells. A549 cells (4×10^5) were grown to approximately 70-80% confluency in 60 mm dish and treated with oTR (5, 10, and 50 μM) for 48 hours. The cells were stained using the FITC Annexin V Apoptosis Detection Kit (556547, BD Biosciences, Franklin Lakes, N.J., USA) as previously described.

[2] = doses of 100 mg/kg or 150 mg/kg, previous study; cited from earlier work
[3] = test system: NSCLC cells; experiment: MTT cell viability assay, NSCLC cells overall; format: cell-based, Human
Protocol: (§1) Human NSCLC cell lines A549, H1437, H2087, H522, and HCC827 were obtained from the Korean Cell Line Bank (KCLB, Seoul, Korea). These cells were cultured in RPMI-1640 medium (Gibco, N.Y., USA) supplemented with 10% FBS (Gibco) and 1% penicillin-streptomycin (HyClone Laboratories, Logan, Utah, USA). All cell lines were cultured under standard conditions (5% CO2, humid environment, 37° C.). A549 cells were seeded at a density of 1×10^4 cells/well and H1437, H2087, H522, HCC827, and MRCS cells at a density of 2×10^4 cells/well in 96-well plates and were cultured until cells reach approximately 70-80% confluency. The NSCLC cells were treated with plant hormones for 48 hours. Stock solution of each plant hormone was diluted with culture medium, wherein concentrations of DMSO, water, methanol, and ethanol in the culture medium were below 1% (v/v). The half-maximal inhibitory concentration (IC50) was calculated using CompuSyn software (ComboSyn Inc., Paramus, N.J., USA).
(§2) The inhibitory effect of plant hormones and their derivatives was investigated on 5 NSCLC cell lines (A549, H1437, H2087, H522, and HCC827). The NSCLC cells were treated with ABA, Cor, ethephon, GR-24, IAA, KR, MJ, N6b, N6i, oTR, and SS-HCS at concentrations of 0.1, 0.5, 1, 5, 10, 50, and 100 μM. Cell viability and IC50 values for 48 hours were investigated by performing the MTT assay.

[4] = test system: H2087; experiment: MTT cell viability assay, H2087; format: cell-based, Human; conditions: 48 hours
Protocol: as §1, §2

[5] = test system: A549 cells; experiment: BrdU cell proliferation assay; format: cell-based, Human
Protocol: The siRNA sequences for ERK1/2 (5′-CCCUGACCCGUCUAAUA-3′ SEQ ID NO: 1), AKT (5′-GAAGGAAGU CAUCGUGCCCAA-3′ SEQ ID NO: 2), and scrambled siRNA (SN-1001-CFG) were purchased from Bioneer (Daejeon, Korea). Cells were transfected with siRNA using Lipofectamine 3000 (Invitrogen, Carlsbad, Calif., USA) according to the manufacturer's instructions.
The 5-bromo-2-deoxyuridine (BrdU) cell proliferation assay was performed according to a previously described method. A549 cells (1×10^4) were grown to approximately 70-80% confluency in 96-well plates and treated with oTR (5, 10, and 50 μM) for 48 hours in the presence or absence of U0126, wortmannin, siERK1/2, and siAKT. Cell proliferation was measured using the Cell Proliferation ELISA, BrdU (colorimetric) kit (Roche Diagnostics, Penzberg, Germany), according to the manufacturer's instructions.

[6] = test system: A549 cells tumor xenograft; conditions: for tumor volume compared to control group: after the second treatment (day 7)
Protocol: To evaluate the anticancer effect of oTR in tumor tissues, a tumor xenograft model was established by injecting 2.5×10^6 A549 cells into the flanks of nude mice (female, BALB/cSlc-nu/nu). After the tumor volume reached above 100 mm^3 after approximately 3 weeks, the mice were randomized into negative controls and experimental groups (5 mice were used per group). Mice were then injected with oTR solution into the tumor area twice a week for 3 weeks. oTR was dissolved in saline:DMSO (1:1, v/v), and 50 μL of oTR solution was injected into mice in a dose of 100 mg/kg or 150 mg/kg. […] Negative controls were injected with saline:DMSO (1:1, v/v) without oTR. Tumor volume, mouse body weight, and mouse survival were recorded twice a week before injecting oTR. Tumor length (a) and width (b) were measured using calipers and tumor volume (mm^3) was calculated by =(a×b^2)/2.
Tumor xenograft mice were treated with oTR at two doses (100 mg/kg and 150 mg/kg). The tumor volume was measured twice a week for 3 weeks to evaluate the therapeutic effects of the drug in vivo.

[7] = test system: H1437; experiment: MTT cell viability assay, H1437; format: cell-based, Human; conditions: 48 hours
Protocol: as §1, §2

[8] = test system: p-ERK, ERK, p-AKT, AKT, cleaved caspase-3 in NSCLC tumor tissue; experiment: Immunoblot analysis of NSCLC tumor tissue lysates; format: in vivo, nude mice (female, BALB/cSlc-nu/nu); conditions: FIG. 7
Protocol: The immunoblot analysis was carried out according to a previously described method. A549 cells (4×10^5) were grown to approximately 70-80% confluency and treated with oTR (5, 10, and 50 μM) for 48 hours. The cell lysates and tissue lysates were prepared and subjected to SDS-PAGE for immunoblotting with the respective antibodies. Anti-caspase-3 (9662), anti-p-AKT (4058), and anti-AKT (9272) antibodies were purchased from Cell Signaling Technology (Danvers, Mass., USA). Anti-ERK1/ERK2 (MAB1576) and anti-p-ERK1/ERK2 (AF1018) were purchased from R&D Systems (Minneapolis, Minn., USA). Anti-LC-III (NB100-2331) antibody was purchased from Novus Biologicals (Littleton, Colo., USA). Anti-β-actin (sc-47778) and anti-GAPDH (sc-47724) antibody was purchased from Santa Cruz Biotechnology (Santa Cruz, Calif., USA).

[9] = test system: A549; experiment: MTT cell viability assay, A549; format: cell-based, Human; conditions: 48 hours
Protocol: as §1, §2

[10] = oTR-treated NSCLC tumor tissues

For `OC[C@H]1O[C@@H](n2cnc3c(NCc4ccccc4O)ncnc32)[C@H](O)[C@@H]1O` [oTR, ortho topolin riboside], the “increase in percentage of late apoptotic cells compared to untreated NSCLC cells” value ([1]; 10 μM oTR) is listed as 5.70±0.16%, the “increase in percentage of late apoptotic cells compared to untreated NSCLC cells” value ([1]; 50 μM oTR) is listed as 24.56±9.37% and the acute toxicity [2] is listed as “no acute toxicity”. The “viability of NSCLC cells” value ([3]; 48 hours of oTR treatment, FIG. 1) was “reduced”, the “IC50 values compared among all tested plant hormones and derivatives” value ([3]; 48 hours, MTT assay) was “lowest IC50 values” and the IC50 [4] was 51.4 µM and 26.1 µM. The “antiproliferative effect of oTR in presence of ERK inhibitors (U0126) or AKT inhibitors (wortmannin)” value ([5]; U0126 (20 μM) or wortmannin (5 μM), FIG. 6D) was “significantly weakened”, the “cell proliferation (BrdU)” value ([5]; oTR 5, 10, and 50 μM, 48 hours, dose-dependent, FIG. 6A) was “significantly inhibited” and the “oTR-induced antiproliferative activity in ERK or AKT knockdown cells” value ([5]; siERK 1/2 (200 nM) or siAKT (200 nM), FIG. 6D) was “significantly inhibited”. For the same compound, the “dose dependence of oTR-induced changes in tumor volume” value ([6]; 100 mg/kg vs 150 mg/kg) was “did not decrease in a dose-dependent manner”, the “tumor volume compared to control group” value ([6]; 100 mg/kg) was “significantly decreased” and the “tumor volume compared to control group” value ([6]; 150 mg/kg) was “significantly decreased”. For the same compound, the “reduction of body weight relative to initial body weight” value ([6]; mouse, in vivo) was at most 5%, the IC50 [7] was 50 ± 6.55 µM and the “expression of cleaved caspase-3” value ([8]; oTR (150 mg/kg)-treated group) was “significantly increased”. The ERK expression [8, 10] was “significant increase”, the “p-AKT and AKT expressions” value [8, 10] was “no significant changes” and the p-ERK expression [8, 10] was “significant decrease”. The IC50 [9] was 34.3 ± 4.4 µM.

From patent US20230241088A1, “COMPOSITION FOR PREVENTING OR TREATING LUNG CANCER COMPRISING ORTHO-TOPOLIN RIBOSIDE AS ACTIVE INGREDIENT” (CHUNG-ANG UNIVERSITY INDUSTRY-ACADEMY COOPERATION FOUNDATION, priority 2022, published 2023)
